Where no end group is shown, it is not given here.

The subject of one assay is spleen cells. Description: Th1/Th2 cytokine profiling assay. The format is cell-based, Balb/c mice. Conditions: 10 micrograms per ml; Ovalbumin restimulation; 72 hours; supernatant.
Another assay has as its system HCMV strain AD169. Description: HCMV plaque formation assay in MRC-5 cells. Conditions: for inhibition of HCMV plaque formation as compared to the virus control: 10 micrograms per ml, 7-10 days.
The subject of a further assay is RAW 264.7 cells. As to the kind of experiment: Phagocytosis assay. The format is cell-based, mouse. As to conditions: 10 micrograms per ml, Fluorescein-labeled Escherichia coli, flow cytometry. (A flow cytometer gives signals particle by particle.)
Assay [1] concerns hepatitis B virus (HBV) ayw strain in HepG2-2.2.15 cells. As to the kind of experiment: HBV experimental assay system (secreted HBV DNA, TaqMan PCR). The format is cell-based. Conditions: 10 micrograms per ml, six days, HBV DNA by TaqMan PCR. An excerpt:
HepG2-2.2.15 is a stable cell line containing the hepatitis B virus (HBV) ayw strain genome (ATCC Cat. No. CRL-11997). Antiviral compounds blocking any late step of viral replication such as transcription, translation, pregenome encapsidation, reverse transcription, particle assembly and release can be identified and characterized using this cell line. In this assay, an active compound will reduce the production of secreted HBV from cells, measured by utilizing real time quantitative PCR (TaqMan) assay to directly and accurately measure HBV DNA copies.
HepG2-2.2.15 cells were plated in 96-well microtiter plates. After 16-24 hours the confluent monolayer of HepG2-2.2.15 cells was washed and the medium was replaced with complete medium containing test peptides—10 micrograms per ml—in duplicate. […] Six days following the initial administration of the peptides, the cell culture supernatants was collected, treated with pronase and DNAse and then used in a real-time quantitative TaqMan PCR assay. The PCR-amplified HBV DNA was detected in real-time by monitoring increases in fluorescence signals that result from the exonucleolytic degradation of a quenched fluorescence probe molecule that hybridizes to the amplified HBV DNA. […] Antiviral activity was calculated from the reduction in HBV DNA levels (% virus control). […]
(In qPCR the cycle at which signal appears reflects the starting amount.)

The test system of assay [2] is LPS-induced TNF-alpha production in human macrophages. Description: TNF alpha production assay. As to conditions: 10 micrograms per ml; 30 min preincubation; lipopolysaccharide 200 ng/ml; overnight; ELISA. It is filed as cell-based. An excerpt:
Not stimulated macrophages served as negative background control.

The next assay relates to HUVEC. Description: Endothelial tube formation assay. Conditions: 10 micrograms per ml, 20 hours, average tubule length. It is filed as cell-based, human. An excerpt: Positive control was vehicle only.
Assay [3] deals with Primary Human endothelial cells (HUVEC). Description: Endothelial cell migration assay. The format is cell-based. As to conditions: 10 micrograms per ml, 22 hours. As to the method:
Thereafter, designated concentration of testing peptides—10 micrograms per ml—was added in duplicate wells.

From the text for spleen cells: The Balb/c mice (originated in 1923, it is a popular strain and is used in many different research disciplines. Also classified as an inbred from the production of 20 or more successive brother-sister matings, the Balb/c mouse is albino and small in size) were immunized on Days 1, 15, and 29 with Ovalbumin (Ovalbumin is the main protein found in egg white, commonly used to stimulate an immunological reaction in test animals) in PBS (5 micrograms/injection). On day 50, spleens of the mice were harvested (3 weeks after last boost with Ovalbumin). Cells were cultured (2×10^5/well in triplicate) and incubated with culture medium or test peptides—10 micrograms per ml—for 30 min. Thereafter, additional Ovalbumin was added to the cells at 10 micrograms/ml for in vitro restimulation of the cells. 72 hours later, cell supernatants were harvested and assayed using the Becton Dickinson Mouse Th1/Th2 Cytokine CBA Kit. This kit can be used to measure Interleukin-2 (IL-2), Interleukin-4 (IL-4), Interleukin-5 (IL-5), Interferon-γ (IFN-γ), and Tumor Necrosis Factor-α (TNF-α) protein levels in a single sample. The kit performance has been optimized for analysis of physiologically relevant concentrations (pg/ml levels) of specific cytokine proteins in tissue culture supernatants and serum samples.

For the compound “Tyr-Pro-Ile-Ser-Leu-OH (YPISL-OH) [peptide 2]”, in the assay with spleen cells, the “IFNγ spleen cells; TH1 response (% of control)” value is 53.9 % of control, the “IL-2 spleen cells (% of control)” value is on record as 124.0 % of control, the “IL-4 spleen cells; TH2 response (% of control)” value is on record as 94.1 % of control and the “IL-5 spleen cells; TH2 response (% of control)” value is 86.6 % of control. Also, in the assay with spleen cells, the “TNF-a spleen cells; TH1 response (% of control)” value was 126.2 % of control. Also, in the assay on HCMV strain AD169, the “inhibition of HCMV plaque formation as compared to the virus control” value was “did not inhibit”. Further, the “effect on the phagocytic activity of murine macrophages (increase)” value in the assay with RAW 264.7 cells is “no inhibitory or activating effect”. In assay [1], the “inhibition of HBV replication as compared to the virus control infection” value turned out to be 41.4%. The “inhibition of the LPS-induced TNF-alpha production in human macrophages” value in assay [2] was “did not induced or inhibit”. In the assay on HUVEC, the “inhibition of the tube formation of endothelial cells” value worked out at 100%.

On to AVPYPQR [peptide 1], for which, in the assay with spleen cells, the “IFNγ spleen cells; TH1 response (% of control)” value was 52.4 % of control, the “IL-2 spleen cells (% of control)” value was 55.7 % of control, the “IL-4 spleen cells; TH2 response (% of control)” value is recorded as 0.0 % of control and the “IL-5 spleen cells; TH2 response (% of control)” value was 53.0 % of control. Also, the “TNF-a spleen cells; TH1 response (% of control)” value in the assay with spleen cells is listed as 86.6 % of control. In addition, the “inhibition of HCMV plaque formation as compared to the virus control” value in the assay on HCMV strain AD169 was “did not inhibit”. Moreover, the “effect on the phagocytic activity of murine macrophages (increase)” value with RAW 264.7 cells is 22.9%. The “inhibition of HBV replication as compared to the virus control infection” value in assay [1] was “no effect”. In assay [3], the “inhibition of the migration of human endothelial cells” value came to 35%. Also, the “inhibition of the LPS-induced TNF-alpha production in human macrophages” value in assay [2] is recorded as 22.4%. Also, the “inhibition of the tube formation of endothelial cells” value in the assay on HUVEC is listed as 18%.

Consider `Nc1nc(O)c2ncn(COC(CO)CO)c2n1` [Ganciclovir, reference compound], for which the “antiviral activity of positive control compound (HCMV)” value in the assay on HCMV strain AD169 (positive control) is listed as “expected levels of antiviral activity”.

The record behind these values is US20100204152A1, “USE OF GLUTEN EXORPHIN C : AS A THERAPEUTIC AGENT” (priority 2007, published 2010).
